For 21 compounds, IC50 results are on record in patent publication US11702422B2, “Imidazopyridazines as modulators of IL-17” (Janssen Pharmaceutica NV, priority 2020, dated 2023).

Assay [1] addresses IL-17A(FLAG-Tagged): IL-17RA(His-Tagged) (Homo sapiens, UniProt Q16552, K93Q). The assay can be described thus: IL-17A(FLAG-Tagged): IL-17RA(His-Tagged) Binding Disruption Eu-HTRF Assay. The note with it: IL-17A/IL-17RA binding disruption, simple average if tested more than once. In short, it runs like this: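 IC50 comes from a one-site competition fit of the HTRF 665/620 nm ratio. Compound dilutions (2-fold, 22 points) were held 1 h rt with FLAG-tagged IL-17A dimer, then His-tagged IL-17RA plus Eu-cryptate anti-FLAG and D2 anti-His antibodies were added for 2 h rt.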
In general terms: In TR-FRET formats the signal depends on donor and acceptor labels being close together.

The subject of assay [2] is IL-17A-induced G-CSF production in human normal keratinocyte (NHK). Briefly: NHK Assay: IL-17A-induced G-CSF production in human normal keratinocytes. The class given is cell-based. The note with it: Homo sapiens, Keratinocyte, 24 h, adult normal human keratinocytes, IL-17A 5 ng/mL, simple average if tested more than once. In short, it runs like this:
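IL-17A (5 ng/mL final) was pre-incubated 1 h at rt with titrated compound and then added to adult normal human keratinocytes (5% FBS, 0.2% DMSO) for 24 h at 37° C. Supernatant G-CSF was measured by HTRF against a standard curve to derive IC50. Viability was checked by CellTiter-Glo.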

Sequence of UniProt Q16552 (Q16552 with tags, fused parts or gaps K93Q): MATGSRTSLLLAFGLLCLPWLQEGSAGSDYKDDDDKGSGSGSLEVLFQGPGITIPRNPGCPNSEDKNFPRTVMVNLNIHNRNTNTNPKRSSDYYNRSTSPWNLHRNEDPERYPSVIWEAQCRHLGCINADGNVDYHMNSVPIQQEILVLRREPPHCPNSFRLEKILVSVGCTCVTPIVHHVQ

As a reminder, the IC50 is the concentration that inhibits the measured activity by half. A high value points to weaker potency in that assay. Take `O=C(CCC(F)(F)F)N[C@@H](c1cnn2cc([C@@H](NC(=O)c3ccnc4c3CCC4)C3CCC(F)(F)CC3)nc2c1)C1CC1` [Example 191, N—((S)-(7-((R)-Cyclopropyl(4,4,4-trifluorobutanamido)methyl)imidazo[1,2-b]pyridazin-2-yl)(4,4-difluorocyclohexyl)methyl)-6,7-dihydro-5H-cyclopenta[b]pyridine-4-carboxamide]: the IC50 in assay [1] stood at 290 nM; in assay [2] it was 1100 nM.
Take `O=C(CCC(F)(F)F)N[C@@H](c1cnn2cc([C@@H](NC(=O)c3cccnc3)C3CCC(F)(F)CC3)nc2c1)C1CC1` [Example 192, N—((S)-(7-((R)-Cyclopropyl(4,4,4-trifluorobutanamido)methyl)imidazo[1,2-b]pyridazin-2-yl)(4,4-difluorocyclohexyl)methyl)nicotinamide]: the results for the IC50 in assay [1] and in assay [2] were 240 nM and 1200 nM, respectively.
On to `O=C(CCC(F)(F)F)N[C@@H](c1cnn2cc([C@@H](NC(=O)c3cccnc3C3CC3)C3CCC(F)(F)CC3)nc2c1)C1CC1` [Example 193, 2-Cyclopropyl-N—((S)-(7-((R)-cyclopropyl(4,4,4-trifluorobutanamido)methyl)imidazo[1,2-b]pyridazin-2-yl)(4,4-difluorocyclohexyl)methyl)nicotinamide], for which the IC50 in assay [1] amounted to 500 nM; in assay [2], 1300 nM.
On to `O=C(CCC(F)(F)F)N[C@@H](c1cnn2cc([C@@H](NC(=O)c3ccnc(C(F)(F)F)c3)C3CCC(F)(F)CC3)nc2c1)C1CC1` [Example 194, N—((S)-(7-((R)-Cyclopropyl(4,4,4-trifluorobutanamido)methyl)imidazo[1,2-b]pyridazin-2-yl)(4,4-difluorocyclohexyl)methyl)-2-(trifluoromethyl)isonicotinamide], for which the concentration for half-maximal inhibition (IC50) in assay [1] stood at 140 nM; in assay [2], 1600 nM.
In the case of `O=C(CCC(F)(F)F)N[C@@H](c1cnn2cc([C@@H](NC(=O)c3ccncc3F)C3CCC(F)(F)CC3)nc2c1)C1CC1` [Example 195, N—((S)-(7-((R)-Cyclopropyl(4,4,4-trifluorobutanamido)methyl)imidazo[1,2-b]pyridazin-2-yl)(4,4-difluorocyclohexyl)methyl)-3-fluoroisonicotinamide], the IC50 in assay [1] turned out to be 580 nM; in assay [2] it was 1600 nM.
For `COc1ccnc(C(=O)N[C@H](c2cn3ncc([C@H](NC(=O)CCC(F)(F)F)C4CC4)cc3n2)C2CCC(F)(F)CC2)c1` [Example 196, N—((S)-(7-((R)-Cyclopropyl(4,4,4-trifluorobutanamido)methyl)imidazo[1,2-b]pyridazin-2-yl)(4,4-difluorocyclohexyl)methyl)-4-methoxypicolinamide], the results for the IC50 in assay [1] and in assay [2] were 480 nM and 1700 nM, respectively.
The corresponding values for `O=C(CCC(F)(F)F)N[C@@H](c1cnn2cc([C@@H](NC(=O)c3cc(OCC(F)F)ccn3)C3CCC(F)(F)CC3)nc2c1)C1CC1` [Example 197, N—((S)-(7-((R)-Cyclopropyl(4,4,4-trifluorobutanamido)methyl)imidazo[1,2-b]pyridazin-2-yl)(4,4-difluorocyclohexyl)methyl)-4-(2,2-difluoroethoxy)picolinamide] are 300 nM and 1700 nM.
The corresponding values for `O=C(CCC(F)(F)F)N[C@@H](c1cnn2cc([C@@H](NC(=O)c3cc(C(F)(F)F)ccn3)C3CCC(F)(F)CC3)nc2c1)C1CC1` [Example 198, N—((S)-(7-((R)-Cyclopropyl(4,4,4-trifluorobutanamido)methyl)imidazo[1,2-b]pyridazin-2-yl)(4,4-difluorocyclohexyl)methyl)-4-(trifluoromethyl)picolinamide] are 410 nM and 1800 nM.
On to `O=C(CCC(F)(F)F)N[C@@H](c1cnn2cc([C@@H](NC(=O)c3cc(C(F)F)ncn3)C3CCC(F)(F)CC3)nc2c1)C1CC1` [Example 199, N—((S)-(7-((R)-Cyclopropyl(4,4,4-trifluorobutanamido)methyl)imidazo[1,2-b]pyridazin-2-yl)(4,4-difluorocyclohexyl)methyl)-6-(difluoromethyl)pyrimidine-4-carboxamide], for which the IC50 in assay [1] amounted to 230 nM; in assay [2] it was 2000 nM.
Regarding `Cc1ncccc1C(=O)N[C@H](c1cn2ncc([C@H](NC(=O)CCC(F)(F)F)C3CC3)cc2n1)C1CCC(F)(F)CC1` [Example 200, N—((S)-(7-((R)-Cyclopropyl(4,4,4-trifluorobutanamido)methyl)imidazo[1,2-b]pyridazin-2-yl)(4,4-difluorocyclohexyl)methyl)-2-methylnicotinamide], the results for the IC50 in assay [1] and in assay [2] were 760 nM and 2200 nM, respectively.
With `O=C(CCC(F)(F)F)N[C@@H](c1cnn2cc([C@@H](NC(=O)c3cccc(OCC(F)F)n3)C3CCC(F)(F)CC3)nc2c1)C1CC1` [Example 201, N—((S)-(7-((R)-Cyclopropyl(4,4,4-trifluorobutanamido)methyl)imidazo[1,2-b]pyridazin-2-yl)(4,4-difluorocyclohexyl)methyl)-6-(2,2-difluoroethoxy)picolinamide], the 50% inhibitory concentration (IC50) in assay [1] was 470 nM; in assay [2] it was 2200 nM.
With `O=C(CCC(F)(F)F)N[C@@H](c1cnn2cc([C@@H](NC(=O)c3cc(C(F)(F)F)ncn3)C3CCC(F)(F)CC3)nc2c1)C1CC1` [Example 202, N—((S)-(7-((R)-Cyclopropyl(4,4,4-trifluorobutanamido)methyl)imidazo[1,2-b]pyridazin-2-yl)(4,4-difluorocyclohexyl)methyl)-6-(trifluoromethyl)pyrimidine-4-carboxamide], the half-inhibitory concentration (IC50) in assay [1] stood at 440 nM; in assay [2] it was 2300 nM.
Take `O=C(CCC(F)(F)F)N[C@@H](c1cnn2cc([C@@H](NC(=O)c3cccc(OCC(F)(F)F)n3)C3CCC(F)(F)CC3)nc2c1)C1CC1` [Example 203, N—((S)-(7-((R)-Cyclopropyl(4,4,4-trifluorobutanamido)methyl)imidazo[1,2-b]pyridazin-2-yl)(4,4-difluorocyclohexyl)methyl)-6-(2,2,2-trifluoroethoxy)picolinamide]: the concentration for half-maximal inhibition (IC50) in assay [1] was found to be 190 nM; in assay [2], 2700 nM.
Take `O=C(CCC(F)(F)F)N[C@@H](c1cnn2cc([C@@H](NC(=O)c3cncnc3)C3CCC(F)(F)CC3)nc2c1)C1CC1` [Example 204, N—((S)-(7-((R)-Cyclopropyl(4,4,4-trifluorobutanamido)methyl)imidazo[1,2-b]pyridazin-2-1)(4,4-difluorocyclohexyl)methyl)pyrimidine-5-carboxamide]: the IC50 in assay [1] amounted to 320 nM; in assay [2], 3300 nM.
The corresponding values for `CC(C)c1cccc(C(=O)N[C@H](c2cn3ncc([C@H](NC(=O)CCC(F)(F)F)C4CC4)cc3n2)C2CCC(F)(F)CC2)n1` [Example 205, N—((S)-(7-((R)-Cyclopropyl(4,4,4-trifluorobutanamido)methyl)imidazo[1,2-b]pyridazin-2-yl)(4,4-difluorocyclohexyl)methyl)-6-isopropylpicolinamide] are 390 nM and 3700 nM.
For the compound `Cc1ccnc(C(=O)N[C@H](c2cn3ncc([C@H](NC(=O)CCC(F)(F)F)C4CC4)cc3n2)C2CCC(F)(F)CC2)c1` [Example 206, N—((S)-(7-((R)-Cyclopropyl(4,4,4-trifluorobutanamido)methyl)imidazo[1,2-b]pyridazin-2-yl)(4,4-difluorocyclohexyl)methyl)-4-methylpicolinamide], the IC50 came to 540 nM in assay [1] and 4000 nM in assay [2].
Turning to `O=C(CCC(F)(F)F)N[C@@H](c1cnn2cc([C@@H](NC(=O)c3ccncn3)C3CCC(F)(F)CC3)nc2c1)C1CC1` [Example 207, N—((S)-(7-((R)-Cyclopropyl(4,4,4-trifluorobutanamido)methyl)imidazo[1,2-b]pyridazin-2-yl)(4,4-difluorocyclohexyl)methyl)pyrimidine-4-carboxamide], the IC50 was found to be 1800 nM in assay [1] and 8400 nM in assay [2].
The corresponding values for `N#Cc1ccccc1C(=O)N[C@H](c1cn2ncc([C@H](NC(=O)CCC(F)(F)F)C3CC3)cc2n1)C1CCC(F)(F)CC1` [Example 208, 2-Cyano-N—((S)-(7-((R)-cyclopropyl(4,4,4-trifluorobutanamido)methyl)imidazo[1,2-b]pyridazin-2-yl)(4,4-difluorocyclohexyl)methyl)benzamide] are 5300 nM and over 20000 nM.
Turning to `Cc1ccncc1C(=O)N[C@H](c1cn2ncc([C@H](NC(=O)CCC(F)(F)F)C3CC3)cc2n1)C1CCC(F)(F)CC1` [Example 209, N—((S)-(7-((R)-Cyclopropyl(4,4,4-trifluorobutanamido)methyl)imidazo[1,2-b]pyridazin-2-yl)(4,4-difluorocyclohexyl)methyl)-4-methylnicotinamide], the figures for the IC50 in assay [1] and in assay [2] were 1400 nM and over 20000 nM, respectively.
The corresponding values for `O=C(CCC(F)(F)F)N[C@@H](c1cnn2cc([C@@H](NC(=O)c3cncc(C(F)(F)F)n3)C3CCC(F)(F)CC3)nc2c1)C1CC1` [Example 210, N—((S)-(7-((R)-Cyclopropyl(4,4,4-trifluorobutanamido)methyl)imidazo[1,2-b]pyridazin-2-yl)(4,4-difluorocyclohexyl)methyl)-6-(trifluoromethyl)pyrazine-2-carboxamide] are 620 nM and over 20000 nM.
As for `COc1nccc(C(=O)N[C@H](c2cn3ncc([C@H](NC(=O)CCC(F)(F)F)C4CC4)cc3n2)C2CCC(F)(F)CC2)n1` [Example 211, N—((S)-(7-((R)-Cyclopropyl(4,4,4-trifluorobutanamido)methyl)imidazo[1,2-b]pyridazin-2-_yl)(4,4-difluorocyclohexyl)methyl)-2-methoxypyrimidine-4-carboxamide], the IC50 in assay [1] was 4300 nM; in assay [2], over 20000 nM.
